Test results reported in patent US11390621B2, “Chiral indole compounds and their use” (ARIAGEN, INC., priority 2019, dated 2022).

How the values were obtained:
4T-1 = 4T-1 syngeneic mouse tumor model, ARI-164 / anti-PD-1 / combination (Example 49); type: in vivo; settings: 4T-1 model
Experimental: (§1) In this example, the in vivo anti-tumor efficacy of a combination of ARI-164 with an anti-PD-1 antibody was evaluated using a panel of seven subcutaneous syngeneic mouse tumor models.
(§2) Seven subcutaneous syngeneic mouse tumor models were generated by innoculating female BALB/C or C57BL/6 mice with cancer cells at their right lower or right front flank followed by randomization as detailed in Table 10 below.
(§3) A solution of a rat monoclonal anti-mouse PD-1 antibody (isotype IgG2a, κ) at a concentration of 6.61 mg/ml was obtained from BioXcell (InVivoMAb anti-mouse PD-1 (CD279), Clone RMP1-14, Cat #BE0146)) and store at 4° C. The antibody solution was diluted with PBS to obtain a 1 mg/ml dosing solution.
(§4) ARI-164 powder was stored at −20° C. The powder of the compound was dissolved in DMSO to obtain dosing solutions at 26.7 mg/ml for administration to mice at 40 mg/kg, respectively.
Seven studies using the seven subcutaneous syngeneic mouse tumor models were performed. In each study, 80 mice were enrolled and randomly allocated to eight different study groups, with 10 mice in each study group. The mean tumor size at randomization was approximately 80-120 mm^3 (around 100 mm^3). Randomization was performed based on “Matched distribution” randomization method (StudyDirector™ software, version 3.1.399.19). […] All the drugs and vehicle controls were injected to the mice intraperitoneally.
(§5) The data was collected and analyzed as described above in Example 48.

Pan02 cancer cells = assay: Pan02 subcutaneous syngeneic mouse tumor model (Example 48); type: in vivo, C57BL/6 mice; settings: for TGI: IP; for tumor inhibition versus vehicle: Pan02 tumors
Experimental: (§6) This example describes in vivo studies that evaluated the anti-cancer efficacy of ARI-143, ARI-164, ARI-165, and ARI-186 in syngeneic mouse tumor models. Mice implanted subcutaneously with EMT-6 or Pan02 cancer cells were treated with ARI-143, ARI-164, ARI-165, ARI-186, or vehicle controls, as described below.
(§7) A monolayer culture of tumor cells was maintained in vitro in DMEM or RPMI1640 medium supplemented with 10% fetal bovine serum at 37° C. in an atmosphere of 5% CO2. Cells in exponential growth phase were harvested and quantitated by cell counter before tumor inoculation. The cell lines used are described in the table below.
(§8) Two subcutaneous syngeneic mouse tumor models were generated by innoculating female BALB/C or C57BL/6 mice with cancer cells at their right lower or front flank as detailed in the table below:
(§9) Each mouse was inoculated subcutaneously with tumor cells in 0.1 mL of PBS. Treatments were started when the mean tumor size reached approximately 80-120 mm^3 (around 100 mm^3). The administration of the test compounds and the animal number in each study group are shown in the study design. The date of tumor cell inoculation was denoted as day 0.
(§10) ARI-143, ARI-164, and ARI-165 were dissolved in DMSO at the final concentration of 26.7 mg/ml and stored at room temperature. In Pan02 studies of ARI-164 and ARI-186, both compounds were dissolved in 100% PEG400.
Randomization of animals was started when the mean tumor size reached approximately 90 mm^3 to form the mouse study groups. The randomization was-performed based on “Matched distribution” method using the multi-task method (StudyDirector™ software, version 3.1.399.19)/randomized block design. […]
(§11) After tumor cell inoculation, the mice were checked daily for morbidity and mortality. During routine monitoring, the mice were checked for tumor growth and any effects of the treatment on behavior such as mobility, food and water consumption, body weight gain/loss (body weights were measured twice per week after randomization), eye/hair matting, and any other abnormalities. Mortality and observed clinical signs were recorded for individual mice in detail.
(§12) Tumor volumes were measured twice per week in two dimensions using a caliper, and the volume was expressed in mm^3 using the formula: V=(L×W×W)/2, where V is tumor volume, L is tumor length (the longest tumor dimension) and W is tumor width (the longest tumor dimension perpendicular to L). Dosing as well as tumor and body weight measurements was conducted in a Laminar Flow Cabinet. The body weights and tumor volumes were measured by using StudyDirector™ software (version 3.1.399.19). Dosing Holiday
(§13) Tumor growth inhibition percentage (TGI %) is an indicator for antitumor activity of a drug compound, and expressed as: TGI(%)=100×(1−T/C), where T and C are the mean tumor volume (or weight) of the treated and control groups, respectively, on a given day. Statistical analysis of the difference in mean tumor volume (MTV) among the groups was conducted using the data collected on the day when the MTV of the vehicle group reached the humane endpoints, so that TGI could be derived for all or most mice enrolled in the study.

EMT-6 cancer cells = assay: EMT-6 subcutaneous syngeneic mouse tumor model (Example 48); type: in vivo, BALB/C mice; settings: 40 mg/kg, IP
Experimental: as §6, §7, §8, §9, §10
Randomization of animals was started when the mean tumor size reached approximately 90 mm^3 to form the mouse study groups. The randomization was-performed based on “Matched distribution” method using the multi-task method (StudyDirector™ software, version 3.1.399.19)/randomized block design. The mouse groups (ten in each group) were treated with vehicle (DMSO or PEG400) or the test compounds at a dose of 26-80 mg/kg by intraperitoneal (i.p.). injection, QD for 28 days or longer.
as §11, §12, §13

Pan02 = Pan02 syngeneic mouse tumor model, ARI-164 / anti-PD-1 / combination (Example 49); type: in vivo
Experimental: as §1, §2, §3, §4
(§14) Seven studies using the seven subcutaneous syngeneic mouse tumor models were performed. In each study, 80 mice were enrolled and randomly allocated to eight different study groups, with 10 mice in each study group. The mean tumor size at randomization was approximately 80-120 mm^3 (around 100 mm^3). Randomization was performed based on “Matched distribution” randomization method (StudyDirector™ software, version 3.1.399.19). […]
as §5

MC38 = MC38 syngeneic mouse tumor model, ARI-164 / anti-PD-1 / combination (Example 49); type: in vivo
Experimental: as §1, §2, §3, §4, §14, §5

H22 = H22 syngeneic mouse tumor model, ARI-164 / anti-PD-1 / combination (Example 49); type: in vivo
Experimental: as §1, §2, §3, §4, §14, §5

A20 = A20 syngeneic mouse tumor model, ARI-164 / anti-PD-1 / combination (Example 49); type: in vivo
Experimental: as §1, §2, §3, §4, §14, §5

EMT-6 = EMT-6 syngeneic mouse tumor model, ARI-164 / anti-PD-1 / combination (Example 49); type: in vivo; settings: EMT-6 model
Experimental: as §1, §2, §3, §4, §14, §5

LL/2 = LL/2 syngeneic mouse tumor model, ARI-164 / anti-PD-1 / combination (Example 49); type: in vivo
Experimental: as §1, §2, §3, §4, §14, §5

[1] = intraperitoneal, anti-PD-1 10 mg/kg BIW, ARI-164 40 mg/kg QD

## CC[C@H](O)c1csc(C(=O)c2c[nH]c3cc(F)ccc23)n1 [ARI-164, (S)-(6-Fluoro-1H-indol-3-yl)(4-(1-hydroxypropyl)thiazol-2-yl)methanone]
4T-1; ARI-164 alone, 40 mg/kg i.p.
  effect on tumor growth (in words): delay tumor growth
4T-1; combination with anti-PD-1 antibody, study day 31
  tumor growth inhibition (in words): statistically significant delta in tumor growth inhibition
4T-1; [1]
  TGI (%): 45.3%
Pan02 cancer cells; 80 mg/kg, study day 0
  TGI: −0.6%
Pan02 cancer cells; 80 mg/kg, study day 4
  TGI: −4.4%
Pan02 cancer cells; 80 mg/kg, study day 7
  TGI: −8.4%
Pan02 cancer cells; 80 mg/kg, study day 11
  TGI: 26.6%
Pan02 cancer cells; 80 mg/kg, study day 14
  TGI: 40.6%
Pan02 cancer cells; 80 mg/kg, study day 18
  TGI: 35.3%
Pan02 cancer cells; 80 mpk i.p. QD, study day 18
  tumor inhibition versus vehicle: 35%
EMT-6 cancer cells; study day 6
  TGI: 0.1%
EMT-6 cancer cells; study day 10
  TGI: −10.8%
EMT-6 cancer cells; study day 13
  TGI: −2.4%
EMT-6 cancer cells; study day 17
  TGI: 20.8%
EMT-6 cancer cells; study day 20
  TGI: 41.6%
EMT-6 cancer cells; study day 24
  TGI: 54.7%
EMT-6 cancer cells; study day 27
  TGI: 54.3%
EMT-6 cancer cells; study day 31
  TGI: 56.2%
Pan02; combination with anti-PD-1 antibody, study day 55
  tumor inhibition (in words): increased tumor inhibition
Pan02; [1]
  TGI (%): 61.1%
MC38; combination with anti-PD-1 antibody, study day 27
  tumor inhibition (in words): significant tumor inhibition
MC38; intraperitoneal, anti-PD-1 10 mg/kg BIW, ARI-164 160 mg/kg QD
  TGI (%): 18.8%
H22; combination with anti-PD-1 antibody, study day 24
  tumor inhibition (in words): significant tumor inhibition
H22; [1]
  TGI (%): 46.9%
A20; combination with anti-PD-1 antibody, study day 28
  tumor inhibition (in words): significant tumor inhibition
A20; [1]
  TGI (%): 28.1%
EMT-6; combination with anti-PD-1 antibody, study day 30
  tumor inhibition (in words): significant tumor inhibition
EMT-6; [1]
  TGI (%): 57.2%
LL/2; LL/2 model (FIG. 21F), combination with anti-PD-1 antibody, study day 32
  tumor inhibition (in words): tumor inhibition
LL/2; LL/2 model, intraperitoneal, anti-PD-1 10 mg/kg BIW, ARI-164 40 mg/kg QD
  TGI (%): 42.5%

## CCC(=O)c1csc(C(=O)c2c[nH]c3cc(F)ccc23)n1 [ARI-143, 1-(2-(6-fluoro-1H-indole-3-carbonyl)thiazol-4-yl)propan-1-one]
EMT-6 cancer cells; (susp), study day 6
  TGI: 0.1%
EMT-6 cancer cells; (susp), study day 10
  TGI: −10.1%
EMT-6 cancer cells; (susp), study day 13
  TGI: 0.6%
EMT-6 cancer cells; (susp), study day 17
  TGI: 30.9%
EMT-6 cancer cells; (susp), study day 20
  TGI: 41.0%
EMT-6 cancer cells; (susp), study day 24
  TGI: 53.2%
EMT-6 cancer cells; (susp), study day 27
  TGI: 51.8%
EMT-6 cancer cells; (susp), study day 31
  TGI: 54.8%

## CC[C@H](N)c1csc(C(=O)c2c[nH]c3cc(F)ccc23)n1 [ARI-186, (S)-(4-(1-aminopropyl)thiazol-2-yl)(6-fluoro-1H-indol-3-yl)methanone]
Pan02 cancer cells; 20 mg/kg, study day 0
  TGI: −2.0%
Pan02 cancer cells; 20 mg/kg, study day 4
  TGI: −13.0%
Pan02 cancer cells; 20 mg/kg, study day 7
  TGI: −0.3%
Pan02 cancer cells; 20 mg/kg, study day 11
  TGI: 27.0%
Pan02 cancer cells; 20 mg/kg, study day 14
  TGI: 49.5%
Pan02 cancer cells; 20 mg/kg, study day 18
  TGI: 61.9%
Pan02 cancer cells; 20 mpk i.p. QD, study day 18
  tumor inhibition versus vehicle: 62%
